Experimental data published in publication PMC8840664, “Design, Synthesis, Spectroscopic Characterisation and In Vitro Cytostatic Evaluation of Novel Bis(coumarin-1,2,3-triazolyl)benzenes and Hybrid Coumarin-1,2,3-triazolyl-aryl Derivatives” (Molecules, 2022).

Assays:
H 460 (lung carcinoma) = test: in vitro antiproliferative activity, MTT assay, H 460; type: cell-based; settings: Homo sapiens, NCI-H460, concentration that causes 50% growth inhibition, 72 h
Procedure: (§1) The experiments were carried out on several human cell lines, as follows: HCT116 (colon carcinoma), H 460 (lung carcinoma) and MCF-7 (breast carcinoma), HeLa (cervical carcinoma), human T-lymphocyte cells (CEM) and HMEC-1 (dermal microvascular endothelial cell) according to the previously published experimental procedure. Briefly, the cells were grown in DMEM medium with the addition of 10% foetal bovine serum (FBS), 2 mM L-glutamine, 100 U/mL penicillin and 100 µg/mL streptomycin, and cultured as monolayers at 37 °C in a humidified atmosphere with 5% CO2. HCT116, H 460 and MCF-7 cells were seeded at 2 × 10^3 cells/well in a standard 96-well microtiter plates and left to attach for 24 h. Next day, test compound was added in five serial 10-fold dilutions. The cell growth rate was evaluated after 72 h of incubation, using MTT assay. Obtained results were expressed as IC50 value which stands for the concentration of the compound necessary for 50% of growth inhibition. The IC50 values were calculated from concentration-response curve using linear regression analysis by fitting the test concentrations that give percentage of growth (PG) values above and below the reference value (i.e., 50%). However, if for a given cell line all of the tested concentrations produce PGs exceeding the respective reference level of effect (e.g., PG value of 50), then the highest tested concentration is assigned as the default value, which is preceded by a “>” sign. Each test was performed in quadruplicate in at least two individual experiments.

[1] = test system: HeLa (cervical carcinoma); test: cell proliferation, Coulter counter, HeLa; type: cell-based; settings: Homo sapiens, 72 h, 3 days, cells counted in a Coulter counter
Procedure: as §1
(§2) HeLa and HMEC-1 cells were seeded in 48-well plates at 10,000 cells/well. After 24 h, different concentrations of the compounds were added. After 3 days of incubation, the cells were trypsinized and counted in a Coulter counter. Suspension cells (human T-cell leukaemia Cem cells) were seeded in 96-well plates at 60,000 cells/well in the presence of different concentrations of compounds, allowed to proliferate for 96 h, and counted in a Coulter counter. The 50% inhibitory concentration (IC50) was defined as the compound concentration required reducing cell proliferation by 50%.

[2] = test system: human T-lymphocyte cells (CEM); test: cell proliferation, Coulter counter, CEM; type: cell-based; settings: 96 h, cells counted in a Coulter counter
Procedure: as §1, §2

MCF-7 (breast carcinoma) = test: in vitro antiproliferative activity, MTT assay, MCF-7; type: cell-based, human; settings: for IC50: Homo sapiens, MCF7, concentration that causes 50% growth inhibition, 72 h, MTT assay
Procedure: as §1

HCT116 (colon carcinoma) = test: in vitro antiproliferative activity, MTT assay, HCT116; type: cell-based; settings: Homo sapiens, HCT-116, concentration that causes 50% growth inhibition, 72 h
Procedure: as §1

[3] = test system: HMEC-1 (dermal microvascular endothelial cell); test: cell proliferation, Coulter counter, HMEC-1 (non-tumour); type: cell-based; settings: Homo sapiens, HMEC-1, 72 h; non-tumour cell line; 3 days, cells counted in a Coulter counter
Procedure: as §1, §2

| IC50 (H 460 (lung carcinoma)) | IC50 (MCF-7 (breast carcinoma)) | melting point | IC50 (HCT116 (colon carcinoma)) | SMILES | IC50 [1] | IC50 [2] | IC50 [3] | activity against MCF-7 cell line (in words) (MCF-7 (breast carcinoma)) |
| --- | --- | --- | --- | --- | --- | --- | --- | --- |
| ≥ 100 µM | 21 ± 0.03 µM | 275 to 279 °C | ≥ 100 µM | Cc1cc(=O)oc2cc(-n3cc(-c4ccc(N(C)C)cc4)nn3)ccc12 [Compound 2c, 7-[4-(4-(Dimethylamino)phenyl]-1H-1,2,3-triazol-1-yl)-4-methyl-2H-chromen-2-one] | 88 ± 8 µM | 58 ± 7 µM | > 100 µM | – |
| ≥ 100 µM | 23 ± 9 µM | 267 to 270 °C | ≥ 100 µM | Cc1cc(=O)oc2cc(-n3cc(-c4ccccc4)nn3)ccc12 [Compound 2a, 4-Methyl-7-(4-phenyl-1H-1,2,3-triazol-1-yl)-2H-chromen-2-one] | > 100 µM | > 100 µM | > 100 µM | – |
| 21 ± 7 µM | 3 ± 2 µM | 186 to 192 °C | 31 ± 6 µM | Cc1cc(=O)oc2cc(-n3cc(CSc4nc5ccccc5s4)nn3)ccc12 [Compound 4a, 7-{{4-[(Benzo[d]thiazol-2-yl)thio]methyl}-1H-1,2,3-triazol-1-yl}-4-methyl-2H-chromen-2-one] | 79 ± 36 µM | ≥ 100 µM | 66 ± 4 µM | – |
| ≥ 100 µM | ≥ 100 µM | 269 to 272 °C | 36 ± 3 µM | Cc1ccc(-c2cn(-c3ccc4c(C)cc(=O)oc4c3)nn2)cc1 [Compound 2d, 4-Methyl-7-[4-(p-tolyl)-1H-1,2,3-triazol-1-yl]-2H-chromen-2-one] | – | – | – | devoid of activity |
| 29 ± 3 µM | 0.3 ± 0.2 µM | – | 9 ± 3 µM | Cc1cc(=O)oc2cc(-n3cc(-c4cccc(-c5cn(-c6ccc7c(C)cc(=O)oc7c6)nn5)c4)nn3)ccc12 [Compound 2h, 7,7′-(4,4′-(1,3-Phenylene)bis(1H-1,2,3-triazole-4,1-diyl))bis(4-methyl-2H-chromen-2-one)] | > 100 µM | > 100 µM | > 100 µM | – |
| 23 ± 10 µM | 19 ± 3 µM | 237 to 244 °C | 31 ± 5 µM | Cc1cc(=O)oc2cc(-n3cc(CSc4nc5ccccc5[nH]4)nn3)ccc12 [Compound 4b, 7-{4-{[(1H-Benzo[d]imidazol-2-yl)thio]methyl}-1H-1,2,3-triazol-1-yl}-4-methyl-2H-chromen-2-one] | 25 µM | 74 ± 37 µM | 69 ± 8 µM | – |
| 85 ± 13.5 µM | 32 ± 4 µM | 280 to 285 °C | 27 ± 0.06 µM | Cc1cc(=O)oc2cc(-n3cc(-c4ccc(Br)cc4)nn3)ccc12 [Compound 2e, 7-[4-(4-Bromophenyl)-1H-1,2,3-triazol-1-yl]-4-methyl-2H-chromen-2-one] | – | – | – | – |
| ≥ 100 µM | 0.6 ± 0.1 µM | 269 to 273 °C | 3 ± 2 µM | Cc1cc(=O)oc2cc(-n3cc(-c4ccc(N)cc4)nn3)ccc12 [Compound 2b, 7-[4-(4-Aminophenyl)-1H-1,2,3-triazol-1-yl]-4-methyl-2H-chromene-2-one] | > 100 µM | > 100 µM | > 100 µM | – |
| 0.1 ± 0.04 µM | 1 ± 0.7 µM | – | 5 ± 2 µM | COc1cc([C@@H]2c3cc4c(cc3[C@@H](O[C@@H]3O[C@@H]5CO[C@@H](C)O[C@H]5[C@H](O)[C@H]3O)[C@H]3COC(=O)[C@H]23)OCO4)cc(OC)c1O [etoposide, reference compound] | – | – | – | – |
| ≥ 100 µM | ≥ 100 µM | 282 to 287 °C | 77 ± 7 µM | Cc1cc(=O)oc2cc(-n3cc(-c4ccc(C=O)cc4)nn3)ccc12 [Compound 2g, 4-[1-(4-Methyl-2-oxo-2H-chromen-7-yl]-1H-1,2,3-triazol-4-yl)benzaldehyde] | – | – | – | devoid of activity |
| ≥ 100 µM | ≥ 100 µM | 266 to 270 °C | 22 ± 21 µM | COc1ccc(-c2cn(-c3ccc4c(C)cc(=O)oc4c3)nn2)cc1 [Compound 2f, 7-[4-(4-Methoxyphenyl)-1H-1,2,3-triazol-1-yl]-4-methyl-2H-chromen-2-one] | – | – | – | devoid of activity |
| ≥ 100 µM | 1 ± 0.1 µM | 255 to 261 °C | 7 ± 3 µM | Cc1cc(=O)oc2cc(-n3cc(-c4ccc(-c5cn(-c6ccc7c(C)cc(=O)oc7c6)nn5)cc4)nn3)ccc12 [Compound 2i, 7,7′-(4,4′-(1,4-Phenylene)bis(1H-1,2,3-triazole-4,1-diyl))bis(4-methyl-2H-chromen-2-one)] | ≥ 100 µM | > 100 µM | > 100 µM | – |
| 3 ± 0.3 µM | 14 ± 0.3 µM | – | 4 ± 1 µM | O=c1[nH]cc(F)c(=O)[nH]1 [Compound 5-FU, 5-fluorouracil, reference compound] | – | – | – | – |
